From the NIST ThermoML archive (doi:10.1016/j.jct.2013.10.034)

Test: xn = mol fraction of the nth substance listed
Conditions: 100 kPa, Liquid; for mass density: Vibrating tube method; for viscosity: Falling or rolling sphere viscometry

CCCC[N+]1(C)CCCC1.N#CN=C=[N-] [1-butyl-1-methylpyrrolidinium dicyanamide] + O
Conditions	mass density, 333.15 K [kg/m3]	mass density, 338.15 K [kg/m3]	mass density, 343.15 K [kg/m3]	viscosity, 338.15 K [mPa·s]	viscosity, 343.15 K [mPa·s]
x1 = 0.0729	985.91	982.26	979.39	1.642	1.496
x1 = 0.1652	989.89	986.61	983.31	2.892	2.593
x1 = 0.2234	991.81	988.61	985.46	3.587	3.24
x1 = 0.3163	994.04	990.99	988.01	4.649	4.199
x1 = 0.3548	994.76	991.74	988.75	5.083	4.587
x1 = 0.4198	995.72	992.73	989.8	5.746	5.195
x1 = 0.4762	996.34	993.46	990.47	6.319	5.717
x1 = 0.5239	996.85	993.96	991.03	6.784	6.142
x1 = 0.6244	997.67	994.85	991.95	7.795	7.061
x1 = 0.629	997.7	994.9	991.96	7.841	7.103
x1 = 0.711	998.24	995.49	992.62	8.671	7.857
x1 = 0.7413	998.46	995.67	992.85	9	8.116
x1 = 0.8776	999.13	996.49	993.62	10.48	9.492
x1 = 0.9732	999.61	996.91	994.09	11.64	10.53
x1 = 1	999.74	997	994.28	11.96	10.82
